Laboratory results: the NIST ThermoML archive (doi:10.1016/j.jct.2010.08.016)

Columns and labels:
[1] = xn = mol fraction of the nth substance listed; conditions: 101 kPa, Liquid; for electrical conductivity: Alternating current cell with electrodes; for mass density: Vibrating tube method
[2] = refractive index (Na D-line) (dimensionless); xn = mol fraction of the nth substance listed; conditions: 101 kPa, Liquid, Standard Abbe refractometry

NC(CO)(CO)CO [2-amino-2-(hydroxymethyl)-1,3-propanediol] + O
Conditions | electrical conductivity, [1] [S/m] | mass density, [1] [kg/m3] | refractive index, [2]
293.15 K, x1 = 0.01 | 0.0158 | 1022.2 | 1.34226
293.15 K, x1 = 0.02 | 0.0179 | 1036.6 | 1.35089
293.15 K, x1 = 0.03 | 0.0189 | 1049.4 | 1.35884
293.15 K, x1 = 0.04 | 0.0193 | 1056.4 | 1.37118
293.15 K, x1 = 0.05 | 0.0205 | 1073.8 | 1.37635
293.15 K, x1 = 0.06 | 0.0205 | 1079.9 | 1.3797
293.15 K, x1 = 0.07 | 0.018 | 1090 | 1.38587
298.15 K, x1 = 0.01 | – | – | 1.34173
298.15 K, x1 = 0.02 | – | – | 1.35029
298.15 K, x1 = 0.03 | – | – | 1.35819
298.15 K, x1 = 0.04 | – | – | 1.37048
298.15 K, x1 = 0.05 | – | – | 1.37565
298.15 K, x1 = 0.06 | – | – | 1.37896
298.15 K, x1 = 0.07 | – | – | 1.38509
303.15 K, x1 = 0.01 | 0.0195 | 1019.5 | 1.34111
303.15 K, x1 = 0.02 | 0.0229 | 1033.6 | 1.34961
303.15 K, x1 = 0.03 | 0.0247 | 1046.2 | 1.35746
303.15 K, x1 = 0.04 | 0.0253 | 1053.3 | 1.3697
303.15 K, x1 = 0.05 | 0.0271 | 1070.3 | 1.37485
303.15 K, x1 = 0.06 | 0.0271 | 1076.2 | 1.37816
303.15 K, x1 = 0.07 | 0.0235 | 1086.3 | 1.38425
308.15 K, x1 = 0.01 | – | – | 1.34042
308.15 K, x1 = 0.02 | – | – | 1.34889
308.15 K, x1 = 0.03 | – | – | 1.35667
308.15 K, x1 = 0.04 | – | – | 1.36888
308.15 K, x1 = 0.05 | – | – | 1.37406
308.15 K, x1 = 0.06 | – | – | 1.37728
308.15 K, x1 = 0.07 | – | – | 1.38334
313.15 K, x1 = 0.01 | 0.0241 | 1016 | 1.33972
313.15 K, x1 = 0.02 | 0.0287 | 1029.9 | 1.34821
313.15 K, x1 = 0.03 | 0.031 | 1042.4 | 1.35596
313.15 K, x1 = 0.04 | 0.0318 | 1049.3 | 1.36815
313.15 K, x1 = 0.05 | 0.0341 | 1066.1 | 1.37347
313.15 K, x1 = 0.06 | 0.0341 | 1071.8 | 1.37673
313.15 K, x1 = 0.07 | 0.03 | 1081.8 | 1.38271
318.15 K, x1 = 0.01 | – | – | 1.33899
318.15 K, x1 = 0.02 | – | – | 1.34742
318.15 K, x1 = 0.03 | – | – | 1.3552
318.15 K, x1 = 0.04 | – | – | 1.36739
318.15 K, x1 = 0.05 | – | – | 1.37247
318.15 K, x1 = 0.06 | – | – | 1.37581
318.15 K, x1 = 0.07 | – | – | 1.38182
323.15 K, x1 = 0.01 | 0.0287 | 1011.6 | 1.3381
323.15 K, x1 = 0.02 | 0.0346 | 1025.5 | 1.34668
323.15 K, x1 = 0.03 | 0.0373 | 1037.8 | 1.35447
323.15 K, x1 = 0.04 | 0.0385 | 1044.7 | 1.36673
323.15 K, x1 = 0.05 | 0.0411 | 1061.3 | 1.37176
323.15 K, x1 = 0.06 | 0.0411 | 1067 | 1.37507
323.15 K, x1 = 0.07 | 0.0367 | 1076.9 | 1.38124
328.15 K, x1 = 0.01 | – | – | 1.33723
328.15 K, x1 = 0.02 | – | – | 1.34603
328.15 K, x1 = 0.03 | – | – | 1.35389
328.15 K, x1 = 0.04 | – | – | 1.36626
328.15 K, x1 = 0.05 | – | – | 1.37115
328.15 K, x1 = 0.06 | – | – | 1.37453
328.15 K, x1 = 0.07 | – | – | 1.38089
333.15 K, x1 = 0.01 | 0.0333 | 1006 | –
333.15 K, x1 = 0.02 | 0.0403 | 1020 | –
333.15 K, x1 = 0.03 | 0.0435 | 1032.7 | –
333.15 K, x1 = 0.04 | 0.0452 | 1039.6 | –
333.15 K, x1 = 0.05 | 0.0482 | 1056 | –
333.15 K, x1 = 0.06 | 0.0482 | 1061.7 | –
333.15 K, x1 = 0.07 | 0.0435 | 1071.4 | –
343.15 K, x1 = 0.01 | 0.0378 | 998.9 | –
343.15 K, x1 = 0.02 | 0.046 | 1013.2 | –
343.15 K, x1 = 0.03 | 0.0497 | 1027 | –
343.15 K, x1 = 0.04 | 0.0518 | 1033.9 | –
343.15 K, x1 = 0.05 | 0.0552 | 1050.2 | –
343.15 K, x1 = 0.06 | 0.0552 | 1055.9 | –
343.15 K, x1 = 0.07 | 0.0503 | 1065.6 | –
353.15 K, x1 = 0.01 | 0.0423 | 989.9 | –
353.15 K, x1 = 0.02 | 0.0514 | 1004.9 | –
353.15 K, x1 = 0.03 | 0.0555 | 1020.8 | –
353.15 K, x1 = 0.04 | 0.0579 | 1027.6 | –
353.15 K, x1 = 0.05 | 0.0619 | 1044 | –
353.15 K, x1 = 0.06 | 0.0619 | 1049.5 | –
353.15 K, x1 = 0.07 | 0.0567 | 1059.2 | –
